Results taken from ChEMBL document CHEMBL3991601, “The target landscape of clinical kinase drugs” (Science, 2017).
The source made the active and inactive calls.

Tests used:
[1] = target: T1, Very long-chain specific acyl-CoA dehydrogenase, mitochondrial (Homo sapiens, UniProt P49748)
T1 sequence (P49748 whole entry): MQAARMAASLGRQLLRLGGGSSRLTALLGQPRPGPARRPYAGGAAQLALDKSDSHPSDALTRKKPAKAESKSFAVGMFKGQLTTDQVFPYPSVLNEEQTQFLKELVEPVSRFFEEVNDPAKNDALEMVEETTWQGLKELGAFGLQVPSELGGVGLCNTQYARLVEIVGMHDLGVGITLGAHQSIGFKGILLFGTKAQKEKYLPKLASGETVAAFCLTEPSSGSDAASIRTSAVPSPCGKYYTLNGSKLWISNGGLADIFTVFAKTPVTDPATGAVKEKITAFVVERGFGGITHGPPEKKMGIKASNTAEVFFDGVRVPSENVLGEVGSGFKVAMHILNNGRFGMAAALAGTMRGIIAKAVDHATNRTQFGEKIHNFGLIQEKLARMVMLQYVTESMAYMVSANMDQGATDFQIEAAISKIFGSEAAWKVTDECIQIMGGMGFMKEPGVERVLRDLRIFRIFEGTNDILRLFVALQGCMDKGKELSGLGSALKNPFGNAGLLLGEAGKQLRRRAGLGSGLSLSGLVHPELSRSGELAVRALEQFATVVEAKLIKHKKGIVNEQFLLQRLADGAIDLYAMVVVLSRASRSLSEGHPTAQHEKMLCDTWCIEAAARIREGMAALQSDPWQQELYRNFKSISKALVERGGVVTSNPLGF

[2] = target: T2, Adenine phosphoribosyltransferase (Homo sapiens, UniProt P07741)
T2 sequence (P07741 whole entry): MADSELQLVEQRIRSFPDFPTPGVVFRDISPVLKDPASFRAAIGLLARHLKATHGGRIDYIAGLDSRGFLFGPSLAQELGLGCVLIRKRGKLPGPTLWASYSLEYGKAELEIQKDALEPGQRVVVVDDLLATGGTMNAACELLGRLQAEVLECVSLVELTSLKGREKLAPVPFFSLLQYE

[3] = target: T3, Serine/threonine-protein kinase A-Raf (Homo sapiens, UniProt P10398)
T3 sequence (P10398 whole entry): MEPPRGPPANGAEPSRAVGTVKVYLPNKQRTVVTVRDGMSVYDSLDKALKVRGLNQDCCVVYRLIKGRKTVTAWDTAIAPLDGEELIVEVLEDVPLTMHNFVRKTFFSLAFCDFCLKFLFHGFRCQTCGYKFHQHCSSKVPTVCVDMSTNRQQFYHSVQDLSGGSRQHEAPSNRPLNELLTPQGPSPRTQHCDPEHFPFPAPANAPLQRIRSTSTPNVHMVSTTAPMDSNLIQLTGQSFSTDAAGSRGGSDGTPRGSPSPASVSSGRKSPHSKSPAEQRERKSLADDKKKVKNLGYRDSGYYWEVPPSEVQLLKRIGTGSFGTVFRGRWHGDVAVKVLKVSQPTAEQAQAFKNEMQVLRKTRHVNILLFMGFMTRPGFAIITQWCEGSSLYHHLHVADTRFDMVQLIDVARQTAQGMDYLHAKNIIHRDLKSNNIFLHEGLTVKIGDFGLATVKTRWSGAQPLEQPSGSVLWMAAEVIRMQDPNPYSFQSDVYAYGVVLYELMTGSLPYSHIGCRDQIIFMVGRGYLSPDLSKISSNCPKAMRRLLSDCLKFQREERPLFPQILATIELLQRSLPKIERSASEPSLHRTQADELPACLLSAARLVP

[4] = target: Calcium/calmodulin-dependent protein kinase type II subunit gamma (Homo sapiens, UniProt Q13555)
[5] = target: Cyclin-dependent kinase 5 (Homo sapiens, UniProt Q00535)
[6] = target: Serine/threonine-protein kinase/endoribonuclease IRE2 (Homo sapiens, UniProt Q76MJ5)
Scaffold protein ILK = target: T4, Scaffold protein ILK (Homo sapiens, UniProt Q13418)
T4 sequence (Q13418 whole entry): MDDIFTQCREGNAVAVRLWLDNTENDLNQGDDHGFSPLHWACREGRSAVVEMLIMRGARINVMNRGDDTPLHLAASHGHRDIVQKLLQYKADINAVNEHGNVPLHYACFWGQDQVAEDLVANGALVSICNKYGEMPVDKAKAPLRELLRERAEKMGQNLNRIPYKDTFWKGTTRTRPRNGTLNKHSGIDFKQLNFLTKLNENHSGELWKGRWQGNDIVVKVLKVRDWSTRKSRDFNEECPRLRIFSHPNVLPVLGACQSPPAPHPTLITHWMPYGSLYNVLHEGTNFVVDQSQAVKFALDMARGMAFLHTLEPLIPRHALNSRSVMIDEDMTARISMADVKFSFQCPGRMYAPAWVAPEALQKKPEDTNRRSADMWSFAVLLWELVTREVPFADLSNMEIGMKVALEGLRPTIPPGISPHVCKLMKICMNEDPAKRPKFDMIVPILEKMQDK

[7] = target: Mitogen-activated protein kinase kinase kinase 1 (Homo sapiens, UniProt Q13233)
[8] = target: T5, Serine/threonine-protein kinase Nek3 (Homo sapiens, UniProt P51956)
T5 sequence (P51956 whole entry): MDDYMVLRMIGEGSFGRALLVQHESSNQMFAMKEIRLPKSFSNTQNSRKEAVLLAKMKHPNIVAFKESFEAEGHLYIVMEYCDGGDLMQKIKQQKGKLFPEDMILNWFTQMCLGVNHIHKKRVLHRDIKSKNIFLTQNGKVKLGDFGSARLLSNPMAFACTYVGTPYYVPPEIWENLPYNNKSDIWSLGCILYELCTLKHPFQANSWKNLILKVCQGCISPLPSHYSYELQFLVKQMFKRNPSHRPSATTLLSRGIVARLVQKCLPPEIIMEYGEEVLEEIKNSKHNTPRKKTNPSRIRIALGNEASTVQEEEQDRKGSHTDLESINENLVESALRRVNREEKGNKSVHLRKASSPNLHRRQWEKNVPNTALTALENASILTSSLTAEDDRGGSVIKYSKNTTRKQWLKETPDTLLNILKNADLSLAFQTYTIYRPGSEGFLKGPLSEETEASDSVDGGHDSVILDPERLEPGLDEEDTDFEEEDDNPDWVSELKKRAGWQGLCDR
Further: in the data inactive means no Kd found up to 30 µM.

Mitogen-activated protein kinase kinase kinase 1, sequence (Q13233 whole entry): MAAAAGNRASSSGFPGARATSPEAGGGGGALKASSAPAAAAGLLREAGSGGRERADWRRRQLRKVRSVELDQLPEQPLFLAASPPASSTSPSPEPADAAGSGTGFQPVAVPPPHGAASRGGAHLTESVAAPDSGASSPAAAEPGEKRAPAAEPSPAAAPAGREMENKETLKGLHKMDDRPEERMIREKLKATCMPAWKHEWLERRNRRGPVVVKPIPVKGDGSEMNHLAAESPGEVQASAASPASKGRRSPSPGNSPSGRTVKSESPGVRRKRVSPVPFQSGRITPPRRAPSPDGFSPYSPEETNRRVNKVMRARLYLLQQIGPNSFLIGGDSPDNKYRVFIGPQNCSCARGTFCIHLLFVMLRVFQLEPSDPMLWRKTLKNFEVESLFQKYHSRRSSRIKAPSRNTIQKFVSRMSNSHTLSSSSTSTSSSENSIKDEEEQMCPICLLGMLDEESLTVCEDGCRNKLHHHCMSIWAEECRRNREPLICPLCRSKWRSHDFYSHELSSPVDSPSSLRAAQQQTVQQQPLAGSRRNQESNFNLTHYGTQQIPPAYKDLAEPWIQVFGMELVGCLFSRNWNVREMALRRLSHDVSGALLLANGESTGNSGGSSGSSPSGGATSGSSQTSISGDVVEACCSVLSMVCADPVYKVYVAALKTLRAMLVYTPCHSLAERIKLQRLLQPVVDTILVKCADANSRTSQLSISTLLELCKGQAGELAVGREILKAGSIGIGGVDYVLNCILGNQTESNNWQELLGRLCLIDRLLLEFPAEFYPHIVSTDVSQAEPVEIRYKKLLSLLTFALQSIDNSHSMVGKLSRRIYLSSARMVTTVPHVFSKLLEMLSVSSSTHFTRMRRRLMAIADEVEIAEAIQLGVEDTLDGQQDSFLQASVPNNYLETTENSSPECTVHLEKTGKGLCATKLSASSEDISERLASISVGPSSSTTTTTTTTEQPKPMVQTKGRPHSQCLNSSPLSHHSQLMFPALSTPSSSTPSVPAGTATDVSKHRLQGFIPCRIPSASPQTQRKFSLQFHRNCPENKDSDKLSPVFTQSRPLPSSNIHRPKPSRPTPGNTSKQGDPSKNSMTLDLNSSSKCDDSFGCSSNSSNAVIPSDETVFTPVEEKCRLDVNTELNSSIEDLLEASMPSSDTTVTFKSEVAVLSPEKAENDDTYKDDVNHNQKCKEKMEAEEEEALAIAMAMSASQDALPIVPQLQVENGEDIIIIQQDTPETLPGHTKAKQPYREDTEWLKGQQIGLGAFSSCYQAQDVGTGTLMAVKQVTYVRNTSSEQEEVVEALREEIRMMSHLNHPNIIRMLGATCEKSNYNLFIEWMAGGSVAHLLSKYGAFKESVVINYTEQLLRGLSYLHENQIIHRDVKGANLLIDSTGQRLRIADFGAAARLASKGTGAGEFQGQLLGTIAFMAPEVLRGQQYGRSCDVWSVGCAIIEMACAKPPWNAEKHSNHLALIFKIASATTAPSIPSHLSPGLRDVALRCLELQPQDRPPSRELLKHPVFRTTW
Calcium/calmodulin-dependent protein kinase type II subunit gamma, sequence (Q13555 whole entry): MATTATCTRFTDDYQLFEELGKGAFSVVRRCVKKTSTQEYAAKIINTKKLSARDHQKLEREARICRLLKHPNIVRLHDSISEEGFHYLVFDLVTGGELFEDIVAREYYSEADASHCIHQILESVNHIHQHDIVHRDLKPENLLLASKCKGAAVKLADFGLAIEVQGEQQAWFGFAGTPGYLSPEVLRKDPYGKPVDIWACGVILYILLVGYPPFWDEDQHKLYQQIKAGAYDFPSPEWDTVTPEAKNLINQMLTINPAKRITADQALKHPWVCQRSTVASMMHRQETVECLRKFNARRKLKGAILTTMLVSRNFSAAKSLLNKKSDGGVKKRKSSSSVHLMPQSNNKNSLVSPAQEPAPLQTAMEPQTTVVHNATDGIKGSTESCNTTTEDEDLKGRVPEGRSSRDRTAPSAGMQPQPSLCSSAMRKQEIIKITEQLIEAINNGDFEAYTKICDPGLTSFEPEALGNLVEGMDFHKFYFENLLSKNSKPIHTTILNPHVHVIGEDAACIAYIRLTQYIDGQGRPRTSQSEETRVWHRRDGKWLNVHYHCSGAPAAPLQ
Cyclin-dependent kinase 5, sequence (Q00535 whole entry): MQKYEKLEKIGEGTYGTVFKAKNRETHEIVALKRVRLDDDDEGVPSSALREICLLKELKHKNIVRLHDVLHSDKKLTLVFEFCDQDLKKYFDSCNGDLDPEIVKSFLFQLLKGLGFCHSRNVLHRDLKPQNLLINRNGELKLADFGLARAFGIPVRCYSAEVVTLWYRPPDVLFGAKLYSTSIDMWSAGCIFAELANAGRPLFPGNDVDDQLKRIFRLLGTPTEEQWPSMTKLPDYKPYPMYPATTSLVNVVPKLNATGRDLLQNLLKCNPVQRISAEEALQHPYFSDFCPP
Serine/threonine-protein kinase/endoribonuclease IRE2, sequence (Q76MJ5 whole entry): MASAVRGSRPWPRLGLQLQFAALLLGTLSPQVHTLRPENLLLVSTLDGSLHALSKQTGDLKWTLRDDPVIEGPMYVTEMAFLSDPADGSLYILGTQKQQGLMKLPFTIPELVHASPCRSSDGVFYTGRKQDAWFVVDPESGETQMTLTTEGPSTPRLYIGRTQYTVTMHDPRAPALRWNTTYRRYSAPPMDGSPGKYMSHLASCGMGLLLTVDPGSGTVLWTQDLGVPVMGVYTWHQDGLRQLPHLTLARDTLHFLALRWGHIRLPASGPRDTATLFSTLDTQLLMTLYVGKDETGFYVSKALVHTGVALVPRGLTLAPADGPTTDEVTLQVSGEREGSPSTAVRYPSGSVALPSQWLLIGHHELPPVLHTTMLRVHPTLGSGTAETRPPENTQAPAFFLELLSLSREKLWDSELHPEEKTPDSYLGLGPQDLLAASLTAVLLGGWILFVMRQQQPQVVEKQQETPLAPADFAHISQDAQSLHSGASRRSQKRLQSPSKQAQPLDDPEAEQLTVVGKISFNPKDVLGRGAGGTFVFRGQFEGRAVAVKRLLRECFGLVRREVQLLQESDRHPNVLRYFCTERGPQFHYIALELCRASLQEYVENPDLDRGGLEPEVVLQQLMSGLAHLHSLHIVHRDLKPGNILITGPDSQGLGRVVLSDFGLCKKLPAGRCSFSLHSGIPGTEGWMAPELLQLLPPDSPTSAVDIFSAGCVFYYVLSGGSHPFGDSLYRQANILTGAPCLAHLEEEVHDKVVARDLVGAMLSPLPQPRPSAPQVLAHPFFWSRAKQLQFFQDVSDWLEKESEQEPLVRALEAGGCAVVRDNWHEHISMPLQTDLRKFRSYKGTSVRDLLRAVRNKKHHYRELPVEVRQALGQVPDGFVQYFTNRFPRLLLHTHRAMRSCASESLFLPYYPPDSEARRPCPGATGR

## C[C@H]1CNCCCN1S(=O)(=O)c1cccc2cncc(F)c12
[1]
  Kd: > 30 µM (inactive)
[2]
  Kd: > 30 µM (inactive)
[3]
  Kd: > 30 µM (inactive)
[4]
  Kd: > 30 µM (inactive)
[5]
  Kd: > 30 µM (inactive)
[6]
  Kd: > 30 µM (inactive)
Scaffold protein ILK
  Kd: > 30 µM (inactive)
[7]
  Kd: > 30 µM (inactive)
[8]
  Kd: > 30 µM (inactive)

## CC(=O)c1cnc2ccc(-c3cc(Cl)c(O)c(Cl)c3)nc2c1N[C@H]1CC[C@H](CN(C)C)CC1
[1]
  Kd: > 30 µM (inactive)
[2]
  Kd: > 30 µM (inactive)
[3]
  Kd: > 30 µM (inactive)
[4]
  Kd: > 30 µM (inactive)
[5]
  Kd: 0.253 µM (active)
[6]
  Kd: > 30 µM (inactive)
[7]
  Kd: > 30 µM (inactive)
[8]
  Kd: > 30 µM (inactive)

## CCNC(=O)C#Cc1ccc2c(c1)NC(=O)/C2=C(\Nc1ccc(CN(C)C)cc1)c1ccccc1
[1]
  Kd: > 30 µM (inactive)
[2]
  Kd: > 30 µM (inactive)
[4]
  Kd: > 30 µM (inactive)
[5]
  Kd: > 30 µM (inactive)
[6]
  Kd: > 30 µM (inactive)
Scaffold protein ILK
  Kd: > 30 µM (inactive)
[7]
  Kd: > 30 µM (inactive)
[8]
  Kd: > 30 µM (inactive)

## C=CC(=O)N1CCC[C@H](n2c(=O)n(-c3ccc(Oc4ccccc4)cc3)c3c(N)ncnc32)C1
[1]
  Kd: > 30 µM (inactive)
[2]
  Kd: > 30 µM (inactive)
[4]
  Kd: > 30 µM (inactive)
[5]
  Kd: > 30 µM (inactive)
[6]
  Kd: > 30 µM (inactive)
Scaffold protein ILK
  Kd: > 30 µM (inactive)
[7]
  Kd: > 30 µM (inactive)
[8]
  Kd: > 30 µM (inactive)

## Cc1nc2cc(-c3nn(C(C)C)c4ncnc(N)c34)ccc2o1
[1]
  Kd: > 30 µM (inactive)
[2]
  Kd: > 30 µM (inactive)
[3]
  Kd: > 30 µM (inactive)
[4]
  Kd: > 30 µM (inactive)
[5]
  Kd: > 30 µM (inactive)
[6]
  Kd: > 30 µM (inactive)
Scaffold protein ILK
  Kd: > 30 µM (inactive)
[7]
  Kd: 1.05 µM (active)
[8]
  Kd: > 30 µM (inactive)

## COCc1c(-c2ccc(NC(=O)Nc3cc(C(F)(F)F)ccc3F)c(F)c2)c2c(N)ncnn2c1CN1CCOCC1
[1]
  Kd: > 30 µM (inactive)
[2]
  Kd: > 30 µM (inactive)
[3]
  Kd: > 30 µM (inactive)
[4]
  Kd: > 30 µM (inactive)
[5]
  Kd: > 30 µM (inactive)
[6]
  Kd: > 30 µM (inactive)
Scaffold protein ILK
  Kd: > 30 µM (inactive)
[7]
  Kd: > 30 µM (inactive)
[8]
  Kd: > 30 µM (inactive)

## COc1cc(Nc2ncc3c(n2)-c2ccc(Cl)cc2C(c2c(F)cccc2OC)=NC3)ccc1C(=O)O [ALISERTIB]
[1]
  Kd: > 30 µM (inactive)
[2]
  Kd: > 30 µM (inactive)
[3]
  Kd: > 30 µM (inactive)
[6]
  Kd: > 30 µM (inactive)
Scaffold protein ILK
  Kd: > 30 µM (inactive)
[7]
  Kd: > 30 µM (inactive)
[8]
  Kd: > 30 µM (inactive)

## Cc1nc(NC(=O)N2CCC[C@H]2C(N)=O)sc1-c1ccnc(C(C)(C)C(F)(F)F)c1 [ALPELISIB]
[1]
  Kd: > 30 µM (inactive)
[2]
  Kd: > 30 µM (inactive)
[3]
  Kd: > 30 µM (inactive)
[4]
  Kd: > 30 µM (inactive)
[5]
  Kd: > 30 µM (inactive)
[6]
  Kd: > 30 µM (inactive)
[7]
  Kd: > 30 µM (inactive)
[8]
  Kd: > 30 µM (inactive)

## Cc1csc(-c2nnc(Nc3ccc(Oc4ncccc4-c4ccnc(N)n4)cc3)c3ccccc23)c1 [AMG-900]
[1]
  Kd: > 30 µM (inactive)
[2]
  Kd: > 30 µM (inactive)
[3]
  Kd: > 30 µM (inactive)
[4]
  Kd: > 30 µM (inactive)
[5]
  Kd: > 30 µM (inactive)
[6]
  Kd: > 30 µM (inactive)
[7]
  Kd: > 30 µM (inactive)
[8]
  Kd: > 30 µM (inactive)

## O=C(Nc1c[nH]nc1-c1nc2cc(CN3CCOCC3)ccc2[nH]1)NC1CC1 [AT-9283]
[1]
  Kd: > 30 µM (inactive)
[2]
  Kd: > 30 µM (inactive)
[3]
  Kd: > 30 µM (inactive)
[4]
  Kd: > 30 µM (inactive)
[6]
  Kd: > 30 µM (inactive)
Scaffold protein ILK
  Kd: > 30 µM (inactive)

## Cn1cc(C2=C(c3cn(C4CCN(Cc5ccccn5)CC4)c4ccccc34)C(=O)NC2=O)c2ccccc21 [ENZASTAURIN]
[1]
  Kd: > 30 µM (inactive)
[2]
  Kd: > 30 µM (inactive)
[3]
  Kd: > 30 µM (inactive)
[6]
  Kd: > 30 µM (inactive)
Scaffold protein ILK
  Kd: > 30 µM (inactive)

## Cc1nc2cc(-n3ncc(C(=O)c4cc5ccccc5[nH]4)c3N)ccc2[nH]1 [FGFR INHIBITOR DEBIO 1347]
[2]
  Kd: > 30 µM (inactive)
[4]
  Kd: > 30 µM (inactive)
[5]
  Kd: > 30 µM (inactive)
[6]
  Kd: > 30 µM (inactive)
Scaffold protein ILK
  Kd: > 30 µM (inactive)
[7]
  Kd: > 30 µM (inactive)
[8]
  Kd: > 30 µM (inactive)

## C[C@@H](Oc1cc(-n2cnc3ccc(CN4CCN(C)CC4)cc32)sc1C(N)=O)c1ccccc1C(F)(F)F [GSK-461364]
[1]
  Kd: > 30 µM (inactive)
[2]
  Kd: > 30 µM (inactive)
[3]
  Kd: > 30 µM (inactive)
[6]
  Kd: > 30 µM (inactive)
Scaffold protein ILK
  Kd: > 30 µM (inactive)

## NC(=O)c1c(OCc2c(F)cc(Br)cc2F)nsc1NC(=O)NCCCCN1CCCC1 [OSI-632]
[1]
  Kd: > 30 µM (inactive)
[2]
  Kd: > 30 µM (inactive)
[3]
  Kd: > 30 µM (inactive)
[6]
  Kd: > 30 µM (inactive)
Scaffold protein ILK
  Kd: > 30 µM (inactive)
[7]
  Kd: 0.135 µM (active)
[8]
  Kd: > 30 µM (inactive)

## Cc1nc(Nc2n[nH]c3c2CN(C(=O)N[C@H](CN(C)C)c2ccccc2)C3(C)C)c2sccc2n1 [PF-03758309]
[1]
  Kd: > 30 µM (inactive)
[2]
  Kd: > 30 µM (inactive)
[3]
  Kd: > 30 µM (inactive)
[4]
  Kd: 0.275 µM (active)
[5]
  Kd: > 30 µM (inactive)
[6]
  Kd: > 30 µM (inactive)
[7]
  Kd: > 30 µM (inactive)
[8]
  Kd: > 30 µM (inactive)

## CC(=O)NCC(=O)N1[C@@H]2CC[C@H]1c1ccc(Nc3ncc(C(F)(F)F)c(NC4CCC4)n3)cc12 [PF-03814735]
[1]
  Kd: > 30 µM (inactive)
[2]
  Kd: > 30 µM (inactive)
[3]
  Kd: > 30 µM (inactive)
[6]
  Kd: > 30 µM (inactive)
Scaffold protein ILK
  Kd: > 30 µM (inactive)
[7]
  Kd: 2.18 µM
[8]
  Kd: > 30 µM (inactive)

## O=C(NOCCO)c1cc(CN2OCCCC2=O)c(F)c(F)c1Nc1ccc(I)cc1F [RO-4987655]
[1]
  Kd: > 30 µM (inactive)
[2]
  Kd: > 30 µM (inactive)
[3]
  Kd: > 30 µM (inactive)
[6]
  Kd: > 30 µM (inactive)
Scaffold protein ILK
  Kd: > 30 µM (inactive)

## Cn1cc(-c2cnn3c(N)c(Br)c([C@@H]4CCCNC4)nc23)cn1 [SCH-900776]
[1]
  Kd: > 30 µM (inactive)
[2]
  Kd: > 30 µM (inactive)
[3]
  Kd: > 30 µM (inactive)
[4]
  Kd: > 30 µM (inactive)
[5]
  Kd: > 30 µM (inactive)
[6]
  Kd: > 30 µM (inactive)
[7]
  Kd: 1.25 µM
[8]
  Kd: > 30 µM (inactive)
